For 4 compounds, IC50 results are on record in patent publication US10633386B2, “BET protein degraders” (THE REGENTS OF THE UNIVERSITY OF MICHIGAN, priority 2016, dated 2020).

Where two headings read alike, the source gives them in different places.

Common to all, as to assay type: cell-based
The test system of one assay is H1650. The assay is described as follows: Cell growth inhibition (CellTiter-Glo), NSCLC line H1650. The note with it: H1650 non-small cell lung cancer cell line, 4 days. As for the experimental part: (§1) Cell growth inhibitory activity of representative BET bromodomain degraders in representative non-small cell lung cancer cell lines was determined using the CellTiter-Glo® Luminescent Cell Viability Assay. Cells were seeded in 384-well white opaque cell culture plates at a density of 2,000 cells/well with serially diluted compounds and incubated at 37° C. in an atmosphere of 95% air and 5% CO2 for 4 days. Cell viability was determined using the CellTiter-Glo® Luminescent Cell Viability Assay Kit (Promega, Madison, Wis.) according to the manufacture's instruction. Briefly, a volume of CellTiter-Glo® Reagent equal to the volume of cell culture medium was added to each well, and then the plates were incubated at room temperature for 10-20 minutes. The luminescent signal was measured using a Tecan Infinite M1000 multimode microplate reader (Tecan, Morrisville, N.C.). The half maximal inhibitory concentration (IC50) was calculated using the GraphPad Prism 5 software (GraphPad Software, La Jolla, Calif.). Cpd. A is a BET bromodomain inhibitor, see U.S. Appl.

The test system of a further assay is CALU-1. In words: Cell growth inhibition (CellTiter-Glo), NSCLC line CALU-1. The note with it: CALU-1 non-small cell lung cancer cell line, 4 days. Here is the method:
as §1

Another assay deals with HCC70. In words: Cell growth inhibition (CellTiter-Glo), breast cancer line HCC70. The note with it: 4 days. Here is the method:
(§2) Cell growth inhibitory activity of representative BET bromodomain degraders in representative breast cancer cell lines was determined using the CellTiter-Glo® Luminescent Cell Viability Assay. SUM-52 and SUM-159 cell lines were established at the University of Michigan Comprehensive Cancer Center. All the other breast cancer cell lines were obtained from the ATCC (Manassas, Va.). Cells were seeded in 384-well cell culture plates at a density of 1,000-2,500 cells/well with serially diluted compounds and incubated at 37° C. in an atmosphere of 95% air and 5% CO2 for 4 days. Cell viability was determined using the CellTiter-Glo® Luminescent Cell Viability Assay Kit (Promega, Madison, Wis.) according to the manufacture's instruction. Briefly, a volume of CellTiter-Glo® Reagent equal to the volume of cell culture medium was added to each well, and then the plates were incubated at room temperature for 20-60 minutes. The luminescent signal was measured using a Tecan Infinite M1000 multimode microplate reader (Tecan, Morrisville, N.C.). The half maximal inhibitory concentration (IC50) was calculated using the GraphPad Prism 5 software (GraphPad Software, La Jolla, Calif.). “Thd” is thalidomide.
For orientation: Cellular ATP, detected with luciferase, serves as a proxy for viable cell number.

A further assay relates to HBL-100. In words: Cell growth inhibition (CellTiter-Glo), breast cancer line HBL-100. The note with it: HBL-100 breast cancer cell line, 4 days. As for the experimental part: as §2
The subject of the next assay is HCC38. The assay is described as follows: Cell growth inhibition (CellTiter-Glo), breast cancer line HCC38. As to conditions: 4 days. Here is the method: as §2
The next assay relates to H1869. The assay is described as follows: Cell growth inhibition (CellTiter-Glo), NSCLC line H1869. The note with it: H1869 non-small cell lung cancer cell line, 4 days. Here is the method: as §1
Another assay relates to H2030. In words: Cell growth inhibition (CellTiter-Glo), NSCLC line H2030. As to conditions: H2030 non-small cell lung cancer cell line, 4 days. Here is the method:
as §1

The subject of the next assay is HCC1395. In words: Cell growth inhibition (CellTiter-Glo), breast cancer line HCC1395. The note with it: 4 days. As for the experimental part: as §2
The test system of the next assay is HCC1954. In words: Cell growth inhibition (CellTiter-Glo), breast cancer line HCC1954. As to conditions: 4 days. As for the experimental part: as §2
The test system of a further assay is H1299. In words: Cell growth inhibition (CellTiter-Glo), NSCLC line H1299. The note with it: H1299 non-small cell lung cancer cell line, 4 days. As for the experimental part: as §1
The next assay has as its system H2009. In words: Cell growth inhibition (CellTiter-Glo), NSCLC line H2009. The note with it: H2009 non-small cell lung cancer cell line, 4 days. Here is the method:
as §1

In a further assay the test system is SW480. The assay is described as follows: Cell growth inhibition (CellTiter-Glo), colon cancer line SW480. Here is the method: as §1, with “Appl. No. 62/121,637, having the following structure:” for “Appl.”
(§3) Cell growth inhibitory activity of representative BET bromodomain degraders in representative colon cancer cell lines, see Table 7, was determined as described in Example 17.

The next assay concerns LS1034. In words: Cell growth inhibition (CellTiter-Glo), colon cancer line LS1034. As for the experimental part: as §1, with “Appl. No. 62/121,637, having the following structure:” for “Appl.”
as §3

The subject of the next assay is MDA-MB-453. In words: Cell growth inhibition (CellTiter-Glo), breast cancer line MDA-MB-453. As to conditions: MDA-MB-453 breast cancer cell line, 4 days. As for the experimental part: as §2
For the next assay, the system named is H520. The assay is described as follows: Cell growth inhibition (CellTiter-Glo), NSCLC line H520. As to conditions: H520 non-small cell lung cancer cell line, 4 days. As for the experimental part: as §1
In another assay the test system is SW620. In words: Cell growth inhibition (CellTiter-Glo), colon cancer line SW620. As for the experimental part:
as §1, with “Appl. No. 62/121,637, having the following structure:” for “Appl.”
as §3

The test system of another assay is H2444. The assay is described as follows: Cell growth inhibition (CellTiter-Glo), NSCLC line H2444. The note with it: H2444 non-small cell lung cancer cell line, 4 days. Here is the method:
as §1

In the next assay the test system is LS411N. The assay is described as follows: Cell growth inhibition (CellTiter-Glo), colon cancer line LS411N. Here is the method: as §1, with “Appl. No. 62/121,637, having the following structure:” for “Appl.”
as §3

The subject of a further assay is HT-29. The assay is described as follows: Cell growth inhibition (CellTiter-Glo), colon cancer line HT-29. As to conditions: HT-29 colon cancer cell line. As for the experimental part:
as §1, with “Appl. No. 62/121,637, having the following structure:” for “Appl.”
as §3

Another assay has as its system H1648. In words: Cell growth inhibition (CellTiter-Glo), NSCLC line H1648. As to conditions: H1648 non-small cell lung cancer cell line, 4 days. Here is the method: as §1
A further assay has as its system T84. In words: Cell growth inhibition (CellTiter-Glo), colon cancer line T84. Here is the method: as §1, with “Appl. No. 62/121,637, having the following structure:” for “Appl.”
as §3

For a further assay, the system named is A549. The assay is described as follows: Cell growth inhibition (CellTiter-Glo), NSCLC line A549. As to conditions: A549 non-small cell lung cancer cell line, 4 days. As for the experimental part:
as §1

In a further assay the test system is BT-20. In words: Cell growth inhibition (CellTiter-Glo), breast cancer line BT-20. As to conditions: BT-20 breast cancer cell line, 4 days. As for the experimental part: as §2

The term IC50 denotes the concentration at which inhibition is half-maximal. A high value points to lower potency. For the compound `Cc1sc2c(c1C)C(c1ccc(Cl)cc1)=N[C@@H](CC(=O)NCCCCNC(=O)COc1cccc3c1C(=O)N(C1CCC(=O)NC1=O)C3=O)c1nnc(C)n1-2` (stereo partly shown) [dBET1, reference compound], the IC50 is 2300 nM with H1650; 3100 nM in the assay with CALU-1; over 5000 nM in the assay with HCC70; over 5000 nM in the assay on HBL-100; 3700 nM in the assay on HCC38; over 5000 nM in the assay with H1869. In addition, the half-inhibitory concentration (IC50) in the assay on H2030 is over 5000 nM; with HCC1395, over 5000 nM; with HCC1954, 3760 nM; in the assay with H1299, over 5000 nM; in the assay on H2009 it was over 5000 nM; with SW480 it was over 5000 nM. Besides, the half-inhibitory concentration (IC50) in the assay with LS1034 was over 5000 nM; in the assay with MDA-MB-453, over 5000 nM; in the assay with H520 it was 4200 nM; with SW620 it was over 5000 nM; with H2444, 3000 nM; in the assay with LS411N, over 5000 nM. In addition, the IC50 in the assay with HT-29, in the assay on H1648, in the assay with T84, in the assay with A549 and in the assay on BT-20 was over 5000 nM throughout.
As to `CCn1nc(C2CC2)cc1Nc1nc(COC)nc2[nH]c3cc(-c4c(C)noc4C)c(OC)cc3c12` [Cpd. A, reference compound], the IC50 was found to be 430 nM in the assay on H1650 (Homo sapiens, NCI-H1650, 96 h); 2520 nM in the assay on CALU-1 (Homo sapiens, 96 h); 580 nM with HCC70 (Homo sapiens, 96 h); 100 nM in the assay on HBL-100 (Homo sapiens, 96 h); 60 nM in the assay on HCC38 (Homo sapiens, 96 h); 60 nM in the assay on H1869 (96 h). Besides, the concentration for half-maximal inhibition (IC50) in the assay on H2030 (Homo sapiens, NCI-H2030, 96 h) worked out at 110 nM; with HCC1395 (Homo sapiens, 96 h), 1050 nM; in the assay on HCC1954 (Homo sapiens, 96 h) it was 1620 nM; with H1299 (Homo sapiens, NCI-H1299, 96 h) it was 60 nM; in the assay with H2009 (Homo sapiens, NCI-H2009, 96 h), 170 nM; with SW480 (Homo sapiens) it was 567 ± 10 nM. Besides, the half-maximal inhibitory concentration (IC50) with LS1034 (Homo sapiens, LS-1034) is 455 ± 430 nM; in the assay with MDA-MB-453 (Homo sapiens, 96 h), 40 nM; in the assay on H520 (Homo sapiens, NCI-H520, 96 h) it was 280 nM; with SW620 (Homo sapiens, SW-620), over 2500 nM; with H2444 (Homo sapiens, NCI-H2444, 96 h), 2720 nM; in the assay on LS411N (Homo sapiens, LS-411N) it was 110 ± 90 nM. Further, the IC50 was found to be 69 ± 1 nM with HT-29 (Homo sapiens); 140 nM in the assay with H1648 (Homo sapiens, NCI-H1648, 96 h); 413 ± 100 nM with T84 (Homo sapiens); 20 nM in the assay with A549 (Homo sapiens, 96 h); 2410 nM with BT-20 (Homo sapiens, 96 h).
With `CCn1nc(C2CC2)cc1Nc1nc(C(=O)NCCCOCCOCCOCCCNc2cccc3c2C(=O)N(C2CCC(=O)NC2=O)C3=O)nc2[nH]c3cc(-c4c(C)noc4C)c(OC)cc3c12` (stereo not shown) [Cpd. No. 4], the IC50 was determined as 4 nM in the assay on H1650 (Homo sapiens, NCI-H1650, 96 h); 2 nM with CALU-1 (Homo sapiens, 96 h); 35 nM in the assay with HCC70 (Homo sapiens, 96 h); 4 nM in the assay on HBL-100 (Homo sapiens, 96 h); 4 nM with HCC38 (Homo sapiens, 96 h); 9 nM in the assay on H1869 (96 h). The concentration for half-maximal inhibition (IC50) came out at 137 nM in the assay on H2030 (Homo sapiens, NCI-H2030, 96 h); 277 nM in the assay on HCC1395 (Homo sapiens, 96 h); 4 nM in the assay with HCC1954 (Homo sapiens, 96 h); 69 nM with H1299 (Homo sapiens, NCI-H1299, 96 h); 16 nM in the assay on H2009 (Homo sapiens, NCI-H2009, 96 h); 37 ± 10 nM with SW480 (Homo sapiens). Further, the IC50 in the assay on LS1034 (Homo sapiens, LS-1034) is 97 ± 20 nM; in the assay on MDA-MB-453 (Homo sapiens, 96 h), 2 nM; in the assay with H520 (Homo sapiens, NCI-H520, 96 h), 3 nM; in the assay with SW620 (Homo sapiens, SW-620), 38 ± 5 nM; in the assay with H2444 (Homo sapiens, NCI-H2444, 96 h), 4 nM; with LS411N (Homo sapiens, LS-411N), 100 ± 60 nM. The half-maximal inhibitory concentration (IC50) with HT-29 (Homo sapiens) came out at 32 ± 20 nM; with H1648 (Homo sapiens, NCI-H1648, 96 h) it was 5 nM; in the assay on T84 (Homo sapiens), 110 ± 30 nM; in the assay with A549 (Homo sapiens, 96 h), 119 nM; with BT-20 (Homo sapiens, 96 h) it was 25 nM.
For `CCn1nc(C2CC2)cc1Nc1nc(C(=O)NCCCCNc2cccc3c2C(=O)N(C2CCC(=O)NC2=O)C3=O)nc2[nH]c3cc(-c4c(C)noc4C)c(OC)cc3c12` (stereo not shown) [Cpd. No. 9], the IC50 in the assay with H1650 (Homo sapiens, NCI-H1650, 96 h) is 8 nM; in the assay with CALU-1 (Homo sapiens, 96 h), 9 nM; in the assay with H1869 (96 h) it was 93 nM; with H2030 (Homo sapiens, NCI-H2030, 96 h), 269 nM; in the assay on H1299 (Homo sapiens, NCI-H1299, 96 h), 228 nM; in the assay with H2009 (Homo sapiens, NCI-H2009, 96 h), 34 nM. In addition, the IC50 worked out at 247 ± 60 nM in the assay on SW480 (Homo sapiens); 368 ± 170 nM in the assay on LS1034 (Homo sapiens, LS-1034); 11 nM in the assay with H520 (Homo sapiens, NCI-H520, 96 h); 1040 ± 1040 nM in the assay with SW620 (Homo sapiens, SW-620); 28 nM in the assay on H2444 (Homo sapiens, NCI-H2444, 96 h); 560 ± 380 nM with LS411N (Homo sapiens, LS-411N). In addition, the concentration for half-maximal inhibition (IC50) in the assay with HT-29 (Homo sapiens) was determined as 48 ± 2 nM; in the assay with H1648 (Homo sapiens, NCI-H1648, 96 h) it was 22 nM; in the assay with T84 (Homo sapiens), 690 ± 300 nM; in the assay on A549 (Homo sapiens, 96 h) it was 157 nM.
